For data set [1], the target named is T1, NADPH--cytochrome P450 reductase (Homo sapiens, UniProt P16435).
T1 sequence (P16435 whole entry): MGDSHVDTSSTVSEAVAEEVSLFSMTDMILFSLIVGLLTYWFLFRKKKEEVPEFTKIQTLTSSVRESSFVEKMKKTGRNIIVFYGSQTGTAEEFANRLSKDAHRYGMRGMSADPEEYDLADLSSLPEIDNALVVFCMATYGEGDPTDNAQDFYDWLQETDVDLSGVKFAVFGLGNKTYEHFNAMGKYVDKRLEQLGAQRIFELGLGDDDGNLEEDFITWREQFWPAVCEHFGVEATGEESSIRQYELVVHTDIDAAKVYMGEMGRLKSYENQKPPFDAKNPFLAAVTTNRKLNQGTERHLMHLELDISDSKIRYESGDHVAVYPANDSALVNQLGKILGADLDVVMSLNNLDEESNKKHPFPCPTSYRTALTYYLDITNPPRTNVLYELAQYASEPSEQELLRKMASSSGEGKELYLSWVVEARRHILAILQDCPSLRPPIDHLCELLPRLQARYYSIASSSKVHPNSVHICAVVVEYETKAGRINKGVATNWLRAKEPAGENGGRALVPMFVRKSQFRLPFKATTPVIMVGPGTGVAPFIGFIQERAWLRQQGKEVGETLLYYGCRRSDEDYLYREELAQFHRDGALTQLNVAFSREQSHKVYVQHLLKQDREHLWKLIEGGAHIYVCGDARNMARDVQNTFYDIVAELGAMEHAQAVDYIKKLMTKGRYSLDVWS
Briefly: Substrate activity at recombinant human CPR expressed in baculovirus infected insect cells assessed as compound reduction rate by measuring NADPH consumption per umol of enzyme preincubated for 3 mins followed by NADPH addition measured for 5 mins at 2 sec time interval by UV-Visible spectroscopic method. The format is ADME.

Data set [2] is described as follows: Electrochemical behavior of the compound assessed as electrochemical redox potential with reference to ferrocene at 1 mM using Ag/AgCl reference electrode measured up to -2 V at potential sweep rates of 50 mV/s by cyclic voltammetry.
For a further data set, the species on record is Homo sapiens. Briefly: Selectivity ratio of compound reduction rate catalyzed by recombinant human NQO1 expressed in Escherichia coli to compound reduction rate catalyzed by recombinant human CPR expressed in baculovirus infected insect cells.
Data set [3] can be described thus: Selectivity ratio of IC50 for substrate activity at CPR in human L02 cells assessed as cell growth inhibition to IC50 for substrate activity at NQO1 in human A549 cells assessed as cell growth inhibition.
Data set [4] deals with Mus musculus. Nature of the data set: Toxicity in athymic nude mouse xenografted with human A549 cells assessed as change in body weight at 30 mg/kg, iv administered every other day for 3 weeks measured twice per week during compound dosing. Type of data set: organism-based. The following applies: in vivo, 504 h.
The subject of data set [5] is A549. Briefly: Cytotoxicity against NQO1 inhibitor dicoumarol pretreated human A549 cells assessed as cell growth inhibition treated for 24 hrs measured after 72 hrs by MTT assay. Type of data set: functional, cell-based.
A further data set concerns NCI-H596. Briefly: Cytotoxicity against NQO1-deficient human NCI-H596 cells assessed as cell growth inhibition treated for 24 hrs measured after 72 hrs by MTT assay. Type of data set: functional, cell-based.
The test system of data set [6] is A549. Briefly: Antitumor activity against human A549 cells xenografted in athymic nude mouse assessed as tumor growth inhibition at 15 mg/kg, iv administered every other day for 3 weeks measured twice per week during compound dosing. The format is functional, organism-based.
The subject of data set [7] is A549. Briefly: Antitumor activity against human A549 cells xenografted in athymic nude mouse assessed as tumor growth inhibition at 30 mg/kg, iv administered every other day for 3 weeks measured twice per week during compound dosing relative to control. The following applies: 504 h, read-out: TGI. Type of data set: functional.
Data set [8] has as its system Mus musculus. Nature of the data set: Toxicity in athymic nude mouse xenografted with human A549 cells assessed as change in body weight at 15 to 30 mg/kg, iv administered every other day for 3 weeks measured twice per week during compound dosing. The format is organism-based. As to conditions: in vivo, 504 h.
Data set [9] addresses T1, NADPH--cytochrome P450 reductase. Briefly: Substrate activity at CPR in human L02 cells assessed as CPR-mediated one-electron reduction of compound by measuring cell growth inhibition at 20 to 100 uM treated for >8 hrs measured after 72 hrs by MTT assay. The format is cell-based.

The structures appear in SMILES notation. Activity calls are given as the source filed them. The rule behind the calls is not given here.

On to `CC1OC2=C(C(=O)c3ccccc3C2=O)C1(C)C` (stereo not drawn) [ALPHA-DUNNIONE], for which the Activity in data set [1] is 1011 µmol/min; in data set [2], -1.19 V. Further, the Selectivity ratio in the data set filed under Homo sapiens was 0.72.

Consider `CC1(C)CCC2=C(O1)C(=O)c1ccccc1C2=O` [ALPHA-LAPACHONE], for which the Activity in [1] is 1010 µmol/min; in data set [2] it was -1.22 V. Also, the Selectivity ratio in the data set listed under Homo sapiens is 0.72.

Take `Cc1ccc2c(c1)-c1occ(C)c1C(=O)C2=O`: the results for the Activity in data set [1] and in data set [2] were 835 µmol/min and -1.05 V, respectively. In addition, the Selectivity ratio in the data set listed under Homo sapiens amounted to 1.25. Further, the “Ratio IC50” value in data set [3] is on record as 1.54.

In the case of `COc1ccc2c(c1)C(=O)C(=O)C1=C2OC(C)C1(C)C` (configuration not stated), the Activity is 782 µmol/min in data set [1] and -1.09 V in [2].

With `Cc1cc2c(cc1C)-c1occ(C)c1C(=O)C2=O`, the Activity in data set [1] is 142 µmol/min; with Mus musculus [4], “Non-Toxic”; in data set [2], -1.09 V; in the data set with Mus musculus [8], “Non-Toxic”. Moreover, the IC50 in the data set with A549 [5] is 21 µM; in the data set with NCI-H596 it was 35 µM. The TGI entry in the data set on A549 [6] is “Active”. Moreover, the inhibition in vivo at 30 mg/kg in the data set on A549 [7] came out at 67.5%. In addition, the “Ratio IC50” value in [3] is recorded as 10.6.

`CC1CC2=C(O1)c1ccccc1C(=O)C2=O` (configuration not stated): the Activity in data set [1] came out at 905 µmol/min. The Selectivity ratio in the data set filed under Homo sapiens worked out at 0.71.

For the molecule `CC1OC2=C(C(=O)C(=O)c3ccccc32)C1(C)C` (configuration not stated), the Activity is 1437 µmol/min in data set [1] and -1.01 V in [2]. Besides, the Selectivity ratio in the data set filed under Homo sapiens stood at 0.7.

On to `Cc1coc2c1C(=O)C(=O)c1ccccc1-2`, for which the Activity is 1201 µmol/min in data set [1] and -1.03 V in [2]. The Selectivity ratio in the data set filed under Homo sapiens amounted to 0.63.

As to `CCc1coc2c1C(=O)C(=O)c1ccc(C)cc1-2`, the Activity in [1] amounted to 1014 µmol/min. Also, the Selectivity ratio in the data set listed under Homo sapiens is 1.17.

Turning to `Cc1coc2c1C(=O)C(=O)c1c(C)ccc(C)c1-2`, the Activity was 672 µmol/min in data set [1] and -1.07 V in data set [2]. Besides, the Selectivity ratio in the data set listed under Homo sapiens was determined as 1.38. For the same molecule, the “Ratio IC50” value in data set [3] is given as 5.86.

Consider `CCc1coc2c1C(=O)C(=O)c1ccccc1-2`, for which the Activity in [1] is 1382 µmol/min. The Selectivity ratio in the data set listed under Homo sapiens turned out to be 0.54.

Regarding `CC1(C)CC2=C(O1)c1ccccc1C(=O)C2=O` [NOR-BETA-LAPACHONE], in data set [1], the Activity was determined as 1427 µmol/min. Besides, the Selectivity ratio in the data set listed under Homo sapiens turned out to be 0.52.

In the case of `CCc1coc2c1C(=O)C(=O)c1cc(C)ccc1-2`, the Activity in data set [1] is 796 µmol/min. For the same molecule, the Selectivity ratio in the data set listed under Homo sapiens was found to be 1.63. In data set [3], the “Ratio IC50” value was 8.06.

For `CC1OC2=C(C(=O)C(=O)c3ccccc32)C1C` (configuration not stated), the Activity in data set [1] worked out at 659 µmol/min. Further, the Selectivity ratio in the data set listed under Homo sapiens is 1.1.

As for `O=C1C(=O)c2ccoc2-c2ccccc21`, the Activity was 1221 µmol/min in data set [1] and -0.98 V in data set [2]. Besides, the Selectivity ratio in the data set listed under Homo sapiens stood at 1.18.

In the case of `Cc1cc2c(cc1C)-c1occc1C(=O)C2=O`, the Activity in [1] turned out to be 400 µmol/min.

In the case of `Cc1ccc2c(c1)C(=O)C(=O)c1c(C)coc1-2`, the figures for the Activity in data set [1] and in [2] were 891 µmol/min and -1.04 V, respectively. Moreover, the Selectivity ratio in the data set filed under Homo sapiens was found to be 1.82. For the same molecule, the “Ratio IC50” value in data set [3] was determined as 2.59.

Consider `CC1(C)C=CC2=C(O1)C(=O)c1ccccc1C2=O` [DEHYDRO-ALPHA-LAPACHONE], for which the Activity in data set [1] was 852 µmol/min; in [2], -1.22 V. The Selectivity ratio in the data set listed under Homo sapiens is 0.91.

In the case of `COc1ccc2c(c1)C1=C(C(=O)C2=O)C(C)(C)C(C)O1` (configuration not stated), the figures for the Activity in data set [1] and in data set [2] were 812 µmol/min and -1.13 V, respectively.

As to `Cc1cc(=O)n(C)c2c1C(=O)C1=C(C=CC(C)(C)O1)C2=O`, the values for the Activity in data set [1] and in [2] were 1422 µmol/min and -0.9 V, respectively. For the same molecule, the Selectivity ratio in the data set filed under Homo sapiens is 0.81.

With `COc1cccc2c1C1=C(C(=O)C2=O)C(C)(C)C(C)O1` (configuration not stated), the Activity in data set [1] is 764 µmol/min; in data set [2], -1.1 V.

As for `CC1(C)CCC2=C(O1)c1ccccc1C(=O)C2=O` [LAPACHONE], the Activity in data set [1] was 923 µmol/min; in data set [2], -1.02 V. Besides, the “growth inhibition (GI)” value in data set [9] was “Active”. Further, the inhibition in vivo at 30 mg/kg in the data set with A549 [7] amounted to 70.7%.

With `CCc1coc2c1C(=O)C(=O)c1cc(C)c(C)cc1-2`, the Activity in [1] worked out at 818 µmol/min.

The values are drawn from ChEMBL document CHEMBL4007423, “Discovery of quinone-directed antitumor agents selectively bioactivated by NQO1 over CPR with improved safety profile” (Eur J Med Chem, 2017).
